Results from ChEMBL document CHEMBL5465560, “Selectivity Literature for EUbOPEN Chemogenomic Library” (2024).

Assays:
[1] = target: Tyrosine-protein kinase Fyn (Homo sapiens) (UniProt P06241); assay: Selectivity interaction (KinomeScan (DiscoverX)) EUB0000229b FYN; conditions: at 10 µM
[2] = target: T1, Non-receptor tyrosine-protein kinase TNK1 (Homo sapiens) (UniProt Q13470); assay: Selectivity interaction (KinomeScan (DiscoverX)) EUB0000655a TNK1; conditions: at 10 µM
T1 sequence (whole entry): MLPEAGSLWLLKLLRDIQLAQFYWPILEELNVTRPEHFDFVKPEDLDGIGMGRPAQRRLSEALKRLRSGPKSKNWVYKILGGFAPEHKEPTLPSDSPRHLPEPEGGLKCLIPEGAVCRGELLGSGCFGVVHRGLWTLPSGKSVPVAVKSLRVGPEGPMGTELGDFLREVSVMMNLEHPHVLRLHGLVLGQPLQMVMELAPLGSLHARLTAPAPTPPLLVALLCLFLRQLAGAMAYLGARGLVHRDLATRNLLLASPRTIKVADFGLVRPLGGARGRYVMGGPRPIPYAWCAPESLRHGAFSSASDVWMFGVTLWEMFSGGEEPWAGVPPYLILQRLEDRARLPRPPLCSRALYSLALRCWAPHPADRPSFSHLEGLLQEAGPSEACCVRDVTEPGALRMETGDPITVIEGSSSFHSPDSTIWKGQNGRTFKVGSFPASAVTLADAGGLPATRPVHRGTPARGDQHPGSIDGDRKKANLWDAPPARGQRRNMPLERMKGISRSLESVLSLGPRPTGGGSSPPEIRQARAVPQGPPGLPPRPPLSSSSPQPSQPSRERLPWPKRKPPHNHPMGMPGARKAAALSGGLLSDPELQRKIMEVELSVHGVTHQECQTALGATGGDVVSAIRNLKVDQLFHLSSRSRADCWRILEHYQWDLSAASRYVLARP

[3] = target: T2, Serine/threonine-protein kinase TAO2 (Homo sapiens) (UniProt Q9UL54); conditions: at 10 µM
T2 sequence (whole entry): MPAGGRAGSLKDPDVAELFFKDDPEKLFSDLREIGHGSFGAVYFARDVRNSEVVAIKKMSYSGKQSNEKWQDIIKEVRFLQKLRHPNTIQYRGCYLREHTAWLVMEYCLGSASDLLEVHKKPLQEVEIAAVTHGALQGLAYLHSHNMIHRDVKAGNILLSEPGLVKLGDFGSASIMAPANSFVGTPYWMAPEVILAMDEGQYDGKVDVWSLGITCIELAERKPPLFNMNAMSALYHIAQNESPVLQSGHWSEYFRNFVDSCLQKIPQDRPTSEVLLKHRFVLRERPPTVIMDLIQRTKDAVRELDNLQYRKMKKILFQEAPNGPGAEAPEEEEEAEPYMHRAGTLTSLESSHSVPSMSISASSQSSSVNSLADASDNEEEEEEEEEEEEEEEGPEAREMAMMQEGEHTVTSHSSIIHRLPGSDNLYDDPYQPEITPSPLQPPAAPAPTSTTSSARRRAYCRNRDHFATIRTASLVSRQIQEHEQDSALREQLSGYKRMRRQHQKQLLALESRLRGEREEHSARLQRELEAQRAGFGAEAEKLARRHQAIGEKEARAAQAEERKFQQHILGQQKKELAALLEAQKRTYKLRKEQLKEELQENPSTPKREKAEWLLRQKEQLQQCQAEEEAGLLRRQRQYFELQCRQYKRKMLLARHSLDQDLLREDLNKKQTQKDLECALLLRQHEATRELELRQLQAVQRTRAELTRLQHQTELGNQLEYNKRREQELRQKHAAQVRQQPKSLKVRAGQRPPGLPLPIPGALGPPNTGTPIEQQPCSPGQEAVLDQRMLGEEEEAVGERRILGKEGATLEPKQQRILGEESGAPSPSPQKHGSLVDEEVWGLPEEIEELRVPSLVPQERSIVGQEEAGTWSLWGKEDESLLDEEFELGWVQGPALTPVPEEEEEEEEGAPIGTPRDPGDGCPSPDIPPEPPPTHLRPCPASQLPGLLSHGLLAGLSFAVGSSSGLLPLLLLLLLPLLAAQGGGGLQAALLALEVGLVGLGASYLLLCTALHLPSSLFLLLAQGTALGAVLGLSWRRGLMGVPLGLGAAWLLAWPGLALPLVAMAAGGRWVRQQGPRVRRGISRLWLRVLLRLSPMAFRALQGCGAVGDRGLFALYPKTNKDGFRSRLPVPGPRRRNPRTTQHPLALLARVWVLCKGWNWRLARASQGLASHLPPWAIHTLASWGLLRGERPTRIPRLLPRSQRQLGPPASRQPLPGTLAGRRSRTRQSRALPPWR

SRSF protein kinase 1 = SRSF protein kinase 1 (Homo sapiens, UniProt Q96SB4); assay: Selectivity interaction (Kinase panel (Invitrogen)) EUB0000639a SRPK1; conditions: at 200 nM
SRSF protein kinase 1, sequence (Q96SB4 whole entry): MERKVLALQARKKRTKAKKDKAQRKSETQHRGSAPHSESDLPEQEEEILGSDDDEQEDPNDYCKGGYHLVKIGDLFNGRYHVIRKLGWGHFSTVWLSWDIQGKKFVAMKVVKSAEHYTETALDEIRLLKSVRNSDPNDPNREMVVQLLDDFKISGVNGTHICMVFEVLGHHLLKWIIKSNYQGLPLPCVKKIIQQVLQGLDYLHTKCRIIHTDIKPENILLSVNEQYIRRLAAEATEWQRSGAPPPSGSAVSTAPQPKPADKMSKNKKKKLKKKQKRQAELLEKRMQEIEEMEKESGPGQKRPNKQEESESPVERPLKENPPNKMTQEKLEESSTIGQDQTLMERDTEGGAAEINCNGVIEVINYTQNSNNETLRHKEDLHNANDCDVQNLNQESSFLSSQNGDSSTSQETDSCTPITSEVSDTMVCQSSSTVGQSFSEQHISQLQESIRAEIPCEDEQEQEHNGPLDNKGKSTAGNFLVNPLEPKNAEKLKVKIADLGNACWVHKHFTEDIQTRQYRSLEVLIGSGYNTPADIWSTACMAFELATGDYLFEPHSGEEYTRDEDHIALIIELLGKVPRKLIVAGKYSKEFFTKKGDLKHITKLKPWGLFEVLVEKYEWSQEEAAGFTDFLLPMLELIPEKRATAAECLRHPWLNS

[4] = target: T3, MAP/microtubule affinity-regulating kinase 4 (Homo sapiens) (UniProt Q96L34); assay: Selectivity interaction (KinomeScan (DiscoverX)) EUB0000595a MARK4; conditions: at 10 µM
T3 sequence (whole entry): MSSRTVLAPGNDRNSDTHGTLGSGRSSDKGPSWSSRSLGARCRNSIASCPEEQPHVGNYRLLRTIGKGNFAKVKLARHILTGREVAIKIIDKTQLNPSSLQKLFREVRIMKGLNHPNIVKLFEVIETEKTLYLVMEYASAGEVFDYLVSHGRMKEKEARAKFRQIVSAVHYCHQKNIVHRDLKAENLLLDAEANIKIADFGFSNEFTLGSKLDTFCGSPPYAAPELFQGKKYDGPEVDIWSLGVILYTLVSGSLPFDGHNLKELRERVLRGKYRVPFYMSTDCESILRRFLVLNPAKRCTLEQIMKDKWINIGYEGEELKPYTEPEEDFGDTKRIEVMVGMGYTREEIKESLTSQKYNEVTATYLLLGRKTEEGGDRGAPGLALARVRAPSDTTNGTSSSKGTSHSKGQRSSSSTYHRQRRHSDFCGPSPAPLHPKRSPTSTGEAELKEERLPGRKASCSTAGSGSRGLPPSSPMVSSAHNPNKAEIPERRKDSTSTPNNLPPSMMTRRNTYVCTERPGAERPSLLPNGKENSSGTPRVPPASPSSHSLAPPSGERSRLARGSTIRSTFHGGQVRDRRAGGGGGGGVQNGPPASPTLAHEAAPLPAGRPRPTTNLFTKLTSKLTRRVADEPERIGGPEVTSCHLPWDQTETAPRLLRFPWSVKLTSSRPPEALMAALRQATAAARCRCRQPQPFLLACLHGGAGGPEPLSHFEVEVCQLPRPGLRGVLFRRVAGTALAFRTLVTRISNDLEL

Tyrosine-protein kinase Fyn (Homo sapiens), sequence (P06241 2-537 limits assumed): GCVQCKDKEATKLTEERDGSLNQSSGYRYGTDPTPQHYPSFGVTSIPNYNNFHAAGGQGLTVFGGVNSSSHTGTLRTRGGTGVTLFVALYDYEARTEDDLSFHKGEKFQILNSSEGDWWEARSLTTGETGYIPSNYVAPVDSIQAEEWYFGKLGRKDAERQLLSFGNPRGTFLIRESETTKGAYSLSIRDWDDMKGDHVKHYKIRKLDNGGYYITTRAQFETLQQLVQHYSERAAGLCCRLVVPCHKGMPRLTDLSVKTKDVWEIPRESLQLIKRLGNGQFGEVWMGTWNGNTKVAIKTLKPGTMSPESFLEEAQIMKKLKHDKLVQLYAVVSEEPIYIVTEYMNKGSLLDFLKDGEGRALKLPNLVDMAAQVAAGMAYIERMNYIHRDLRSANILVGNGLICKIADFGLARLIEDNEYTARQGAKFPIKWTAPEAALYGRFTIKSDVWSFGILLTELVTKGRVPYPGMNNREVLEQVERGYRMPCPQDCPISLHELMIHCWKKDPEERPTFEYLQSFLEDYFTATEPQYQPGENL

SMILES: COc1cc(N(C)c2ccnc3ccc(C(F)(F)F)cc23)cc(OC)c1OC
- % binding [1]: 100%

SMILES: CN(C)CCOc1ccc(-c2nc(-c3ccncc3)c(-c3ccc4c(c3)CC/C4=N\O)[nH]2)cc1
- % of control [2]: 100%

SMILES: Cc1cc([C@@H](C)Nc2ccccc2C(=O)O)c2nc(N3CCOCC3)cc(=O)n2c1 [AZD-6482]
- % of control [3]: 94%

SMILES: CC[C@@H]1[C@H](F)C(=O)N[C@@H]1COc1nccc2cc(C(N)=O)c(OC)cc12 [ZIMLOVISERTIB]
- % of inhibition (SRSF protein kinase 1): 0.109%

SMILES: COCC(=O)NC/C=C/c1ccc2ncnc(Nc3ccc(Oc4ccc(C)nc4)c(C)c3)c2c1 [CP-724714]
- % of control [4]: 100%
